The nature of data set [1]: Metabolic stability in human liver microsomes. The class given is in vitro ADME. The settings on record: pH 7.4; human liver microsomes 0.5 mg/mL, 1 μM compound. How it is done: Microsome assay: human liver microsomes: 0.5 mg/mL, Xenotech; rat liver microsomes: 0.5 mg/mL, Xenotech; coenzyme (NADPH/NADH): 1 mM, Sigma Life Science; magnesium chloride: 5 mM, 100 mM phosphate buffer (pH 7.4).
Preparation of stock solutions: Powder of the example compounds and the control compound were accurately weighed and dissolved in DMSO to 5 mM respectively.
Preparation of phosphate buffer (100 mM, pH7.4): A pre-prepared 0.5 M potassium dihydrogen phosphate (150 mL) was mixed with 0.5 M dibasic potassium phosphate (700 mL). The pH of the mixture was adjusted to 7.4 with 0.5 M dibasic potassium phosphate solution. The mixture was diluted 5-fold with ultrapure water before use, and magnesium chloride was added to obtain a phosphate buffer (100 mM) containing 100 mM potassium phosphate, 3.3 mM magnesium chloride, pH 7.4.
A NADPH regeneration system solution (containing 6.5 mM NADP, 16.5 mM G-6-P, 3 U/mL G-6-P D, 3.3 mM magnesium chloride) was prepared and placed on wet ice prior to use.
Preparation of stop solution: an acetonitrile solution containing 50 ng/mL propranolol hydrochloride and 200 ng/mL tolbutamide (internal standard). 25057.5 μL of phosphate buffer (pH 7.4) was taken into a 50 mL centrifuge tube, to which 812.5 μL of human liver microsomes were added, and mixed to obtain a liver microsome dilution with a protein concentration of 0.625 mg/mL. 25057.5 μL of phosphate buffer (pH 7.4) was taken into a 50 mL centrifuge tube, to which 812.5 μL of SD rat microsomes were added, and mixed to obtain a liver microsome dilution with a protein concentration of 0.625 mg/mL.
Incubation of the samples: The stock solutions of the respective compounds were respectively diluted to 0.25 mM with an aqueous solution containing 70% acetonitrile, and used as a working solution, ready for use. 398 μL of the dilutions of human liver microsomes and rat liver microsomes were added to 96-well incubation plates (N=2), respectively, and 2 μL of 0.25 mM working solution was added respectively and mixed.
Metabolic stability assay: 300 μL of pre-chilled stop solution was added to each well of 96-well deep well plates and placed on ice as stop plates. The 96-well incubation plates and NADPH regeneration system were placed in a 37° C. water bath, shaken at 100 rpm and pre-incubated for 5 min. 80 μL of incubation solution was taken out from each well of the incubation plates and added to the stop plates, mixed, and replenished with 20 μL of NADPH regeneration system solution as a 0-min sample. 80 μL of NADPH regeneration system solution was added to each well of the incubation plates to start the reaction and start counting. […] Separately, 100 μL of the reaction solutions was taken at 10, 30, and 90 min after the reaction, respectively, added to stop plates, and vortexed for 3 minutes to terminate the reaction. The stop plates were centrifuged at 5000×g at 4° C. for 10 min. 100 μL of the supernatant was added to a 96-well plate to which 100 μL of distilled water was previously added, mixed, and analyzed by LC-MS/MS.
Data analysis: The peak areas of the corresponding compounds and internal standard were detected by LC-MS/MS system, and the ratio of the peak area of the compounds to the internal standard was calculated.
In general terms: Liver microsomes are vesicles of endoplasmic reticulum, rich in cytochrome P450 enzymes.

The subject of the next data set is Ba/F3 FLT3-ITD cells. Put plainly: Inhibition of Ba/F3 FLT3-ITD cell proliferation (CTG). It is filed as cell-based. The settings on record: 72 hours, read-out: BaF3 [FLT3-ITD] IC50. As to the method:
Cell lines were cultured under the condition of 37° C., 5% CO2 and 95% humidity: cell line Ba/F3 parental (suspended, 3000 cells/well, medium was RPMI-1640+10% FBS+8 ng/ml IL-3), cell line Ba/F3 FLT3-ITD (suspended, 3000 cells/well, medium was RPMI-1640+10% FBS)
Reagents and materials: Fetal bovine serum (FBS, GBICO, Cat. No. 10099-141), CellTiter-Glo® Luminescent Cell Viability Assay (Promega, Cat. No. G7572), 96-well plate with transparent flat bottom and black walls (Corning®, Cat. No. 3603), control compound AC220 (Selleck, Cat. No. S1526).
Cell Culture and Inoculation: • 1. Cells in the logarithmic growth phase were harvested and counted using a platelet counter. The cell viability was determined by trypan blue exclusion method to ensure that the cell viability was greater than 90%; • 2. The cell concentration was adjusted and 90 μL of the cell suspension was added into a 96-well plate respectively; • 3. The cells in the 96-well plate were cultured overnight under the condition of 37° C., 5% CO2 and 95% humidity.
Drug Dilution and Dosing: • 1. The 10-fold drug solutions were prepared with a maximum concentration of 100 μM, which was diluted using a 3.16-fold serial gradient dilution, resulting in 9 concentrations. 10 μL of the drug solutions was added to each well of the 96-well plate inoculated with Ba/F3 parental cells; and each drug concentration was set in triplicate. • 2. The 10-fold drug solutions were prepared with a maximum concentration of 10 μM, which was diluted using a 3.16-fold serial gradient dilution, resulting in 9 concentrations. 10 μL of the drug solutions was added to each well of the 96-well plate inoculated with Ba/F3 FLT3-ITD cells; and each drug concentration was set in triplicate. • 3. The cells in the 96-well plate with drugs were cultured at 37° C., 5% CO2 and 95% humidity for 72 hours, and then CTG analysis was carried out.
Plate Reading at the End Point: • 1. CTG reagent was thawed and the cell plate was equilibrated to room temperature for 30 minutes; • 2. Equal volume of the CTG solution was added to each well; • 3. The cell plate was shaked on the orbital shaker for 5 minutes to lyse the cells; • 4. The cell plate was placed at room temperature for 20 minutes to stabilize the cold light signal; • 5. The cold light values were read.
GraphPad Prism 8.0 software was used to analyze the data, and the data was fitted using the non-linear S-curve regression to get a dose-effect curve, and IC50 values were calculated. Cell viability (%)=(Lum of test drug−Lum of medium control)/(Lum of cell control−Lum of medium control)×100%.

The structures appear in SMILES notation.

On to `[2H]C([2H])([2H])Oc1cc(Nc2nc(NC3CCOCC3)c(CC)nc2C(N)=O)ccc1N1CCC(N2CCN(C([2H])([2H])[2H])CC2)CC1` [Compound T-3, 6-ethyl-3-((3-(methoxy-d3)-4-(4-(4-(methyl-d3)piperazin-1-yl)piperidin-1-yl)phenyl)amino)-5-((tetrahydro-2H-pyran-4-yl)amino)pyrazine-2-carboxamide], for which, in data set [1], the half-life (as a rule, the time in which the quantity being followed falls by half) at 1 μM turned out to be 3.33 h and the microsomal CLint (usually the rate of metabolic loss divided by the concentration) at 1 μM amounted to 6.9 µL/min/mg. Moreover, in the data set with Ba/F3 FLT3-ITD cells, the IC50 (in general, the concentration needed to halve the response being measured) stood at 89 nM.

In data set [1], `[2H]C([2H])([2H])N1CCN(C2CCN(c3ccc(Nc4nc(NC5CCOCC5)c(C([2H])([2H])C([2H])([2H])[2H])nc4C(N)=O)cc3OC)CC2)CC1` [Compound T-5, 6-(ethyl-d5)-3-((3-methoxy-4-(4-(4-(methyl-d3)piperazin-1-yl)piperidin-1-yl)phenyl)amino)-5-((tetrahydro-2H-pyran-4-yl)amino)pyrazine-2-carboxamide] came in with a half-life at 1 μM of 3.14 h and a microsomal CLint at 1 μM of 7.4 µL/min/mg. The IC50 with Ba/F3 FLT3-ITD cells came to 94.4 nM.

Turning to `[2H]C([2H])([2H])Oc1cc(Nc2nc(NC3CCOCC3)c(CC)nc2C(N)=O)ccc1N1CCC(N2CCN(C)CC2)CC1` [Compound T-1, 6-ethyl-3-((3-(methoxy-d3)-4-(4-(4-methylpiperazin-1-yl)piperidin-1-yl)phenyl)amino)-5-((tetrahydro-2H-pyran-4-yl)amino)pyrazine-2-carboxamide], in the data set with Ba/F3 FLT3-ITD cells, the IC50 was 46.5 nM.

As to `CCc1nc(C(N)=O)c(Nc2ccc(N3CCC(N4CCN(C)CC4)CC3)c(OC)c2)nc1NC1CCOCC1` [Gilteritinib, 6-ethyl-3-((3-methoxy-4-(4-(4-methylpiperazin-1-yl)piperidin-1-yl)phenyl)amino)-5-((tetrahydro-2H-pyran-4-yl)amino)pyrazine-2-carboxamide, reference compound], in data set [1], the half-life at 1 μM was found to be 2.75 h and the microsomal CLint at 1 μM worked out at 8.4 µL/min/mg.

In data set [1], `[2H]C([2H])([2H])N1CCN(C2CCN(c3ccc(Nc4nc(NC5CCOCC5)c(CC)nc4C(N)=O)cc3OC)CC2)CC1` [Compound T-2, 6-ethyl-3-((3-methoxy-4-(4-(4-(methyl-d3)piperazin-1-yl)piperidin-1-yl)phenyl)amino)-5-((tetrahydro-2H-pyran-4-yl)amino)pyrazine-2-carboxamide] came in with a half-life at 1 μM of 3.63 h and a microsomal CLint at 1 μM of 6.4 µL/min/mg. Further, the IC50 in the data set on Ba/F3 FLT3-ITD cells was 51.3 nM.

With `[2H]C1([2H])N(C)C([2H])([2H])C([2H])([2H])N(C2CCN(c3ccc(Nc4nc(NC5CCOCC5)c(CC)nc4C(N)=O)cc3OC)CC2)C1([2H])[2H]` [Compound T-8, 6-ethyl-3-((3-methoxy-4-(4-(4-methylpiperazin-1-yl-2,2,3,3,5,5,6,6-d8)piperidin-1-yl)phenyl)amino)-5-((tetrahydro-2H-pyran-4-yl)amino)pyrazine-2-carboxamide], in data set [1], the half-life at 1 μM was determined as 4.36 h and the microsomal CLint at 1 μM came to 5.3 µL/min/mg. Besides, the half-inhibitory concentration (IC50) in the data set with Ba/F3 FLT3-ITD cells stood at 85 nM.

Turning to `[2H]C([2H])([2H])N1C([2H])([2H])C([2H])([2H])N(C2CCN(c3ccc(Nc4nc(NC5CCOCC5)c(CC)nc4C(N)=O)cc3OC)CC2)C([2H])([2H])C1([2H])[2H]` [Compound T-9, 6-ethyl-3-((3-methoxy-4-(4-(4-(methyl-d3)piperazin-1-yl-2,2,3,3,5,5,6,6-d8)piperidin-1-yl)phenyl)amino)-5-((tetrahydro-2H-pyran-4-yl)amino)pyrazine-2-carboxamide], in data set [1], the half-life at 1 μM turned out to be 7.88 h and the intrinsic metabolic clearance (microsomal CLint) at 1 μM worked out at 2.9 µL/min/mg. In addition, the half-maximal inhibitory concentration (IC50) in the data set with Ba/F3 FLT3-ITD cells stood at 72 nM.

The record behind these values is patent publication US11512074B2, “Substituted diamino heterocyclic carboxamide compound and a composition containing the compound and use thereof” (Shenzhen TargetRx, Inc., priority 2018, dated 2022).
